Consider 1 molecule from ChEMBL document CHEMBL1914426, “Phospshoinositide 3-kinase (PI3K)/mammalian target of rapamycin (mTOR) dual inhibitors: discovery and structure-activity relationships of a series of quinoline and quinoxaline derivatives” (J Med Chem, 2011).

A short description of series [1]: Oral bioavailability in Sprague-Dawley rat at 1 mg/kg. Format: ADME, organism-based. The note with it: in vivo.
Series [2] can be described thus: AUC in Sprague-Dawley rat at 1 mg/kg, po. The note with it: plasma. Set-up: dose 1 mg/kg, route oral. Format: ADME, organism-based.
Series [3] is filed under the species Rattus norvegicus. The following applies: in vivo, iv, 1 mg/kg.
Description: Clearance in Sprague-Dawley rat at 1 mg/kg, iv
The species named for series [4] is Rattus norvegicus. The note with it: in vivo, iv, 1 mg/kg. The source holds these as a separate data set.
Description: Volume of distribution at steady-state in Sprague-Dawley rat at 1 mg/kg, iv
The species named for series [5] is Rattus norvegicus. The note with it: in vivo, iv, 1 mg/kg. The source holds these as a separate data set.
Description: Mean residence time in Sprague-Dawley rat at 1 mg/kg, iv
The species entered for series [6] is Rattus norvegicus. The note with it: in vivo, iv, 1 mg/kg. The source holds these as a separate data set.
Description: Hepatic blood flow in Sprague-Dawley rat 1 mg/kg, iv
Series [7] is described as follows: in vitro. The following applies: human, liver microsomes. In general terms: Liver microsomes are vesicles of endoplasmic reticulum, rich in cytochrome P450 enzymes.
Description: Clearance in human liver microsomes assessed as compound remaining at 1 uM after 30 mins
The nature of series [8]: in vitro. The following applies: rat, liver microsomes.
Description: Clearance in rat liver microsomes assessed as compound remaining at 1 uM after 30 mins

Regarding `O=S(=O)(Nc1cc(-c2ccc3ncc(NCCN4CCCCC4)nc3c2)cnc1Cl)c1ccc(F)cc1`, the bioavailability (commonly the share of a dose that reaches the circulation, judged against a reference dose that is usually intravenous) in series [1] was 16%. Also, the AUC (commonly the area under the concentration-time curve, a measure of exposure) in series [2] turned out to be 271 ng·h/mL. Besides, in the series listed under Rattus norvegicus [3], the CL stood at 9.83 mL/min/kg. The Vdss (commonly a proportionality between amount in the body and measured concentration, not a real space) in the series listed under Rattus norvegicus [4] was found to be 0.19 L/kg. Moreover, the MRT (commonly the average time that molecules of a dose stay in the body) in the series filed under Rattus norvegicus [5] is 2.1 h. The QH in the series listed under Rattus norvegicus [6] was 0.6%. For the same molecule, the values for the intrinsic metabolic clearance (microsomal CLint) at 0.5 h, 1 µM in the series “in vitro [7]” and in “in vitro [8]” were 25 µL/min/mg and less than 14 µL/min/mg, respectively.
